Where two headings read alike, the source gives them in different places.
Columns and labels:
CDK5/GST-p25 = molecular target: T1, CDK5/GST-p25 (Homo sapiens, UniProt Q00535); experiment: Inhibition of CDK5/GST-p25 kinase activity (ELISA with time-resolved fluorescence readout); format: biochemical
T1 construct: The final construct, encoding for full-length human CDK5; made in house; host or cells: Sf21 insect cells (baculovirus co-infection)
How it was run: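 The substrate, GST-Rb(773-928), was immobilised on plates and phosphorylated for 20 min at 37 °C by 2 ng/ml CDK5/GST-p25 in HEPES pH 7.2 with 10 µM ATP and 10 mM MgCl2. Both proteins were human and co-expressed in insect cells. Ser-780 phosphorylation was read by europium time-resolved fluorescence and converted to IC50.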

His6-GSK-3β = molecular target: T2, His6-GSK-3β (Homo sapiens, UniProt P49841); experiment: Inhibition of His6-GSK-3β kinase activity (ELISA-based format, time-resolved fluorescence readout); format: biochemical; details: read-out: GSK3β IC50
T2 construct: made in house; host or cells: Sf21 insect cells (baculovirus)
How it was run: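 Plate-bound recombinant GST-Rb substrate was phosphorylated for 30 min at 37° C by baculovirus-expressed His6-GSK-3β (200 ng/ml) at 20 μM ATP, 10 mM MgCl2, 2.5% DMSO. Europium time-resolved fluorescence of anti-phospho-Ser780 Rb signal gave inhibition, fitted to IC50.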

T2 sequence (P49841 2-419): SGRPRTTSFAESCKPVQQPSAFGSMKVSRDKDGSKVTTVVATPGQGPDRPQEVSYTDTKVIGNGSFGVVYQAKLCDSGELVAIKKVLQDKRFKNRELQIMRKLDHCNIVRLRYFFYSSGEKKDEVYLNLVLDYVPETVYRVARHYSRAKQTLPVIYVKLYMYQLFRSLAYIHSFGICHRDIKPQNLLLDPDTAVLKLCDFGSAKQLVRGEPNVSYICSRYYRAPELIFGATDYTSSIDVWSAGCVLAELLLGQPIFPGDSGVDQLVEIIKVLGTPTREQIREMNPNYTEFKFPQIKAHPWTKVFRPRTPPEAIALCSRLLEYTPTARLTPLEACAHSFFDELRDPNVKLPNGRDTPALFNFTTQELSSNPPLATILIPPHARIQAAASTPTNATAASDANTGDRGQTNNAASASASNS
T1 sequence (Q00535 whole entry): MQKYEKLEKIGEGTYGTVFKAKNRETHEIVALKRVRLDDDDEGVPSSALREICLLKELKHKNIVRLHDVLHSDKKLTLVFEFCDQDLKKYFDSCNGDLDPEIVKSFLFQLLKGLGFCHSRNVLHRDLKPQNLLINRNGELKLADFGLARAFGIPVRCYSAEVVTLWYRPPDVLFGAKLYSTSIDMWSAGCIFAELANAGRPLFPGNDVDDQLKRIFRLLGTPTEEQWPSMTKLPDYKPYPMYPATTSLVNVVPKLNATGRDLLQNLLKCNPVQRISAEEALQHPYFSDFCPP
T1 sequence (Q15078 108-307 partner limits assumed): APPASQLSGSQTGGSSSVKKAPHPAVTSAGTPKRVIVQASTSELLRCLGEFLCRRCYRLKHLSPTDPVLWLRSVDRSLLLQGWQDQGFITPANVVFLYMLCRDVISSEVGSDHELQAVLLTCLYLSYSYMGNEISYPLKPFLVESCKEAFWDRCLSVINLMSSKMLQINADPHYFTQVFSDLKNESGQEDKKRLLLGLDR

Molecule | IC50 (CDK5/GST-p25; class symbols) [nM] | IC50 (His6-GSK-3β; class symbols) [nM] | IC50 (His6-GSK-3β; numeric bounds) [nM] | IC50 (CDK5/GST-p25; numeric bounds) [nM]
O=C1Nc2ccc(Br)cc2C1c1nc(NCc2ccccn2)nc2c1CCC2 (stereo not shown) [Example 339, 5-Bromo-3-{2-[(pyridin-2-ylmethyl)-amino]-6,7-dihydro-5H-cyclopentapyrimidin-4-yl}-1,3-dihydro-indol-2-one] | > 10000 | > 10000 |  | 
CNCCCNc1nc(C2C(=O)Nc3ccc(Br)cc32)c2cn(CCOC)nc2n1 (stereo not shown) [Example 226, 5-Bromo-3-[2-(2-methoxy-ethyl)-6-(3-methylamino-propylamino)-2H-pyrazolo[3,4-d]pyrimdin-4-yl]-1,3-dihydro-indol-2-one] | < 300 | < 300 |  | 
N#Cc1ccc2c(c1)C(c1nc(NCc3ccccn3)nc3nn(C4CCCC4)cc13)C(=O)N2 (stereo not shown) [Example 123, 3-{2-cyclopentyl-6-[(pyridin-2-yl-methyl)amino]-2H-pyrazolo[3,4-d]pyrimidin-4-yl}-2-oxo-2,3-dihydro-1H-indole-5-carbonitrile] | < 300 | < 300 |  | 
CC(C)Cn1cc2c(C3C(=O)Nc4ccc(Cl)cc43)nc(Cl)nc2n1 (stereo not shown) [Example 273, 5-Chloro-3-(6-chloro-2-isobutyl-2H-pyrazolo [3,4-d]pyrimidin-4-yl)-1,3-dihydro-indol-2-one] | > 10000 |  | > 3000 | 
CN(C)CCCNc1nc2c(c(C3C(=O)Nc4ccc(C#N)cc43)n1)CCC2 (stereo not shown) [Example 342, 3-[2-(3-Dimethylamino-propylamino)-6,7-dihydro-5H-cyclopentapyrimidin-4-yl]-2-oxo-2,3-dihydro-1H-indole-5-carbonitrile] | 300 to 3000 | 300 to 3000 |  | 
CCCn1cc2c(C3C(=O)Nc4ccc(C)cc43)nc(NCCCOC)nc2n1 (stereo not shown) [Example 310, 3-[6-(3-Methoxy-propylamino)-2-propyl-2H-pyrazolo[3,4-d]pryrimidin-4-yl]-5-methyl-1,3-dihydro-indol-2-one] | 300 to 3000 | 300 to 3000 |  | 
N#Cc1ccc2c(c1)C(c1nc(NCCN3CCOCC3)nc3nn(C4CCCC4)cc13)C(=O)N2 (stereo not shown) [Example 177, 3-[2-Cyclopentyl-6-(2-morpholin-4-yl-ethylamino)-2H-pyrazolo[3,4-d]pyrimidin-4-yl]-2-oxo-2,3-dihydro-1H-indole-5-carbonitrile] | < 300 | < 300 |  | 
O=C1Nc2ccc(Br)cc2C1c1nc(Cl)nc2c1CCC2 (stereo not shown) [Example 314, 5-Bromo-3-(2-chloro-6,7-dihydro-5H-cyclopentapyrimidin-4-yl)-1,3-dihydro-indol-2-one] | > 10000 | > 10000 |  | 
O=C1Nc2ccc(Cl)cc2C1c1nc(NCc2ccncc2)nc2c1CCC2 (stereo not shown) [Example 326, 5-Chloro-3-{2-[(pyridin-4-ylmethyl)-amino]-6,7-dihydro-5H-cyclopentapyrimidin-4-yl}-1,3-dihydro-indol-2-one] | > 10000 | 300 to 3000 |  | 
N#Cc1ccc2c(c1)C(c1nc(NCCc3ccncc3)nc3nn(C4CCCC4)cc13)C(=O)N2 (stereo not shown) [Example 126, 3-(2-cyclopentyl-6-(2-pyridin-4-yl-ethylamino)-2H-pyrazolo [3,4-d]pyrimidin-4-yl)-2-oxo-2,3-dihydro-1H-indole-5-carbonitrile] | < 300 | < 300 |  | 
N#Cc1ccc2c(c1)C(c1nc(NCc3ccc(Cl)nc3)nc3nn(C4CCCC4)cc13)C(=O)N2 (stereo not shown) [Example 171, 3-{6-[(6-Chloro-pyridin-3-ylmethyl)-amino]-2-cyclopentyl-2H-pyrazolo[3,4-d]pyrimidin-4-yl}-2-oxo-2,3-dihydro-1H-indole-5-carbonitrile] | < 300 | < 300 |  | 
N#Cc1ccc2c(c1)C(c1nc(N3CCCCC3)nc3nn(C4CCCC4)cc13)C(=O)N2 (stereo not shown) [Example 131, 3-(2-cyclopentyl-6-piperidin-1-yl-2H-pyrazolo[3,4-d]pyrimidin-4-yl)-2-oxo-2,3-dihydro-1H-indole-5-carbonitrile] | > 10000 | < 300 |  | 
N#Cc1ccc2c(c1)C(c1nc(NCc3cccnc3)nc3nn(C4CCCC4)cc13)C(=O)N2 (stereo not shown) [Example 133, 3-{2-cyclopentyl-6-[(pyridin-3-ylmethyl)amino]-2H-pyrazolo[3,4-d]pyrimidin-4-yl}-2-oxo-2,3-dihydro-1H-indole-5-carbonitrile] | < 300 | < 300 |  | 
O=C1Nc2ccc(Br)cc2C1c1nc(NCCCN2CCOCC2)nc2c1CCC2 (stereo not shown) [Example 331, 5-Bromo-3-[2-(3-morpholin-4-yl-propylamino)-6,7-dihydro-5H-cyclopentapyrimidin-4-yl]-1,3-dihydro-indol-2-one] | > 10000 | 300 to 3000 |  | 
N#Cc1ccc2c(c1)C(c1nc(NN)nc3nn(C4CCCC4)cc13)C(=O)N2 (stereo not shown) [Example 124, 3-(2-cyclopentyl-6-hydrazino-2H-pyrazolo [3,4-d]pyrimidin-4-yl)-2-oxo-2,3-dihydro-1H-indole-5-carbonitrile] | 300 to 3000 | < 300 |  | 
5-Chloro-3-[2-cyclopentyl-6-(2-diethylamino-ethoxy)-2H-pyrazolo [3,4-d]pyrimidin-4-yl]-1,3-dihydro-indol-2-one [Example 141] | > 10000 | < 300 |  | 
CN(C)CCNc1nc(C2C(=O)Nc3ccc(Br)cc32)c2cn(C3CCCC3)nc2n1 (stereo not shown) [Example 370, 5-Bromo-3-[2-cyclopentyl-6-(2-dimethylamino-ethylamino)-2H-pyrazolo [3,4-d]pyrimidin-4-yl]-1,3-dihydro-indol-2-one] |  | < 300 |  | > 3000

The remaining lines, values ahead:

IC50 (CDK5/GST-p25; class symbols) [nM] | IC50 (His6-GSK-3β; class symbols) [nM] | IC50 (His6-GSK-3β; numeric bounds) [nM] | IC50 (CDK5/GST-p25; numeric bounds) [nM] | Molecule
< 300 | < 300 |  |  | C=CCNc1nc(C2C(=O)Nc3ccc(Br)cc32)c2cn(C)nc2n1 (stereo not shown) [Example 301, 3-(6-Allylamino-2-methyl-2H-pyrazolo[3,4-d]pyrimidin-4-yl)-5-bromo-1,3-dihydro-indol-2-one]
300 to 3000 | 300 to 3000 |  |  | O=C1Nc2ccc(Br)cc2C1c1nc(NCc2cccnc2)nc2c1CCC2 (stereo not shown) [Example 337, 5-Bromo-3-{2-[(pyridin-3-ylmethyl)-amino]-6,7-dihydro-5H-cyclopentapyrimidin-4-yl}-1,3-dihydro-indol-2-one]
< 300 | < 300 |  |  | N#Cc1ccc2c(c1)C(c1nc(NCCCN3CCOCC3)nc3nn(C4CCCC4)cc13)C(=O)N2 (stereo not shown) [Example 139, 3-[2-cyclopentyl-6-(3-morpholin-4-yl-propylamino)-2H-pyrazolo[3,4-d]pyrimidin-4-yl]-2-oxo-2,3-dihydro-1H-indole-5-carbonitrile]
> 10000 | > 10000 |  |  | O=C1Nc2ccc(Cl)cc2C1c1nc(NCc2ccccn2)nc2c1CCC2 (stereo not shown) [Example 330, 5-Chloro-3-{2-[(pyridin-2-ylmethyl)-amino]-6,7-dihydro-5H-cyclopentapyrimidin-4-yl}-1,3-dihydro-indol-2-one]
> 10000 | < 300 |  |  | O=C1Nc2ccc(Cl)cc2C1c1nc(N2CCOCC2)nc2nn(C3CCCC3)cc12 (stereo not shown) [Example 143, 5-Chloro-3-(2-cyclopentyl-6-morpholin-4-yl-2H-pyrazolo [3,4-d]pyrimidin-4-yl)-1,3-dihydro-indol-2-one]
> 10000 | > 10000 |  |  | O=C1Nc2ccc(Cl)cc2C1c1nc(NCc2ccc(C(F)(F)F)nc2)nc2c1CCC2 (stereo not shown) [Example 329, 5-Chloro-3-{2-[(6-trifluoromethyl-pyridin-3-ylmethyl)-amino]-6,7-dihydro-5H-cyclopentapyrimidin-4-yl}-1,3-dihydro-indol-2-one]
300 to 3000 | < 300 |  |  | CN(C)CCNc1nc(C2C(=O)Nc3ccc(C#N)cc32)c2cn(C3CCCC3)nc2n1 (stereo not shown) [Example 119, 3-(2-cyclopentyl-6-(2-dimethylamino-ethylamino)-2H-pyrazolo [3,4-d]pyrimidin-4-yl)-2-oxo-2,3-dihydro-1H-indole-5-carbonitrile]
< 300 | < 300 |  |  | N#Cc1ccc2c(c1)C(c1ncnc3nn(C4CCCCC4)cc13)C(=O)N2 (stereo not shown) [Example 45, 3-(2-Cyclohexyl-2H-pyrazolo [3,4-d]pyrimidin-4-yl)-2-oxo-2,3-dihydro-1H-indole-5-carbonitrile]
> 10000 | < 300 |  |  | CN(C)CCN(C)c1nc(C2C(=O)Nc3ccc(Cl)cc32)c2cn(C3CCCC3)nc2n1 (stereo not shown) [Example 140, 5-Chloro-3-{2-cyclopentyl-6-[(2-dimethylamino-ethyl)-methyl-amino]-2H-pyrazolo[3,4-d]pyrimidin-4-yl}-1,3-dihydro-indol-2-one]
< 300 | 300 to 3000 |  |  | N#Cc1ccc2c(c1)C(c1nc(NCc3ccccn3)nc3c1CCC3)C(=O)N2 (stereo not shown) [Example 349, 2-Oxo-3-{2-[(pyridin-2-ylmethyl)-amino]-6,7-dihydro-5H-cyclopentapyrimidin-4-yl}-2,3-dihydro-1H-indole-5-carbonitrile]
> 10000 | < 300 |  |  | CCCCN1CCC(CNc2nc(C3C(=O)Nc4ccc(Cl)cc43)c3cn(C4CCCC4)nc3n2)CC1 (stereo not shown) [Example 275, 3-{6-[(1-Butyl-piperidin-4-ylmethyl)-amino]-2-cyclopentyl-2H-pyrazolo[3,4-d]pyrimidin-4-yl}-5-chloro-1,3-dihydro-indol-2-one]
< 300 | < 300 |  |  | CCCn1cc2c(C3C(=O)Nc4ccc(C#N)cc43)nc(NCc3cccnc3)nc2n1 (stereo not shown) [Example 184, 2-Oxo-3-{2-propyl-6-[(pyridin-3-ylmethyl)-amino]-2H-pyrazolo[3,4-d]pyrimidin-4-yl}-2,3-dihydro-1H-indole-5-carbonitrile]
